Laboratory results reported in publication PMC3237054 (2011).

Columns and labels:
LPA3 (hLPA3) = molecular target: T1, LPA3 (hLPA3) (Homo sapiens, UniProt Q9UBY5); type: biochemical; settings: read-out: Ki; cho cell membranes
T1 sequence (Q9UBY5 1-353): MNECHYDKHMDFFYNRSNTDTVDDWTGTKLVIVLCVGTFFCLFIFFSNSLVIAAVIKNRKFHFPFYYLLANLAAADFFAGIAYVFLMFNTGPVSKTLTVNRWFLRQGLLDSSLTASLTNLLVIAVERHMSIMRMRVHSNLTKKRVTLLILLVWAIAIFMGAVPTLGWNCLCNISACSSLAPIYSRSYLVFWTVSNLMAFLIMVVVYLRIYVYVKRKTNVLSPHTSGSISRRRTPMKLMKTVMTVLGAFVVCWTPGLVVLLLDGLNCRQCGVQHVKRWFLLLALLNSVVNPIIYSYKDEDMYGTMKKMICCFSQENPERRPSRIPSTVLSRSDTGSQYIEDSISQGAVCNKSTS

LPA1 (hLPA1) = LPA1 (hLPA1) (Homo sapiens, UniProt Q92633); type: biochemical; settings: read-out: Ki; cell membranes
LPA1 (hLPA1), sequence (Q92633 whole entry): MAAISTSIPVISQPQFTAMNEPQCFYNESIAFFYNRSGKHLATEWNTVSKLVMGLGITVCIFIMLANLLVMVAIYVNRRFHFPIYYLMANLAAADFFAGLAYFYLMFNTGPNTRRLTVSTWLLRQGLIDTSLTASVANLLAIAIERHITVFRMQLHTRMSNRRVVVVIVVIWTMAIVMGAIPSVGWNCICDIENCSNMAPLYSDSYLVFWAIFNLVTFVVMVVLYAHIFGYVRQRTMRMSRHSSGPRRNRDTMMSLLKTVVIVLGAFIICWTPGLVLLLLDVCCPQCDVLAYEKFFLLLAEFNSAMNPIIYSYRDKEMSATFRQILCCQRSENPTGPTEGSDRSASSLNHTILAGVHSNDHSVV

In the case of VPC51299 [6.1], the Kb (LPA3 (hLPA3)) is reported as 512 nM and the Kb (LPA1 (hLPA1)) is reported as 143 nM.
